{"source": "patent US10323036B2", "about": "(Nimbus Lakshmi, Inc., priority 2016, dated 2019)", "target": "human TYK2 (JH2domain-pseudokinase) (Homo sapiens (Human), UniProt P29597)", "sequence (P29597 556-888)": "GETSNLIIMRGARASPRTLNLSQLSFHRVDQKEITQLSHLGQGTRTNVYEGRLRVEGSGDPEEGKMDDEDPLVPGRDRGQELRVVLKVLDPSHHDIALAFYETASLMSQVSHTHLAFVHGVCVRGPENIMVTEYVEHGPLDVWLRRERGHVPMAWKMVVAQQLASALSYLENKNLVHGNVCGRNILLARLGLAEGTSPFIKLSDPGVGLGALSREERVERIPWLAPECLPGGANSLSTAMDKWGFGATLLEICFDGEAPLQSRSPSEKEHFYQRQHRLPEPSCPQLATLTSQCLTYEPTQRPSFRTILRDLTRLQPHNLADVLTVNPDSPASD", "assay": "TYK2 JH2 Domain Binding Assay (KINOMEscan)", "key": {"[1]": {"conditions": "Table 4, JH2 binding assay, read-out: JH2 Kd"}, "[2]": {"conditions": "Table 5, Tyk2 JH2 Domain Binding Assay, read-out: JH2 Kd"}}, "note": "Like-named read-outs stand apart in the source and are kept apart here."}
{"smiles": "COc1cc(C2CCC2)ccc1Nc1cc(NC(=O)C2CC2)nc2[nH]n(C)c(=O)c12", "note": "[Compound I-51]", "values": [{"measurement": "Kd", "setting": "[1]", "result": "> 10", "unit": "nM"}]}
{"smiles": "Cc1ccc(Nc2cc(Nc3ccc(F)cc3S(C)(=O)=O)c3c(=O)n(C)[nH]c3n2)nn1", "note": "[Compound I-198, 4-((4-fluoro-2-(methylsulfonyl)phenyl)amino)-2-methyl-6-((6-methylpyridazin-3-yl)amino)-1,2-dihydro-3H-pyrazolo[3,4-b]pyridin-3-one]", "values": [{"measurement": "Kd", "setting": "[1]", "result": "0.1 to 0.5", "unit": "nM"}]}
{"smiles": "COc1c(Nc2cc(NC(=O)C3CC3)nc3[nH]n(C)c(=O)c23)ccc(C(=O)N2CCCC2)c1F", "note": "[Compound I-141]", "values": [{"measurement": "Kd", "setting": "[1]", "result": "1 to 10", "unit": "nM"}]}
{"smiles": "Cn1[nH]c2nc(Nc3cncc(C#N)n3)cc(Nc3ccccc3S(C)(=O)=O)c2c1=O", "note": "[Compound I-119, 6-((2-methyl-4-((2-(methylsulfonyl)phenyl)amino)-3-oxo-2,3-dihydro-1H-pyrazolo[3,4-b]pyridin-6-yl)amino)pyrazine-2-carbonitrile]", "values": [{"measurement": "Kd", "setting": "[1]", "result": "1 to 10", "unit": "nM"}]}
{"smiles": "COCc1ccc(Nc2cc(Nc3ccc(C(=O)N4CCCC4)c(C(F)(F)F)n3)nc3[nH]n(C)c(=O)c23)c(OC)c1", "note": "[Compound I-92, 4-((2-methoxy-4-(methoxymethyl)phenyl)amino)-2-methyl-6-((5-(pyrrolidine-1-carbonyl)-6-(trifluoromethyl)pyridin-2-yl)amino)-1,2-dihydro-3H-pyrazolo[3,4-b]pyridin-3-one]", "values": [{"measurement": "Kd", "setting": "[1]", "result": "0.1 to 0.5", "unit": "nM"}]}
{"smiles": "COc1cc(C2CC2)ccc1Nc1cc(NC(=O)C2CC2)nc2[nH]n(C)c(=O)c12", "note": "[Compound I-50, N-(4-((4-cyclopropyl-2-methoxyphenyl)amino)-2-methyl-3-oxo-2,3-dihydro-1H-pyrazolo[3,4-b]pyridin-6-yl)cyclopropanecarboxamide]", "values": [{"measurement": "Kd", "setting": "[1]", "result": "1 to 10", "unit": "nM"}]}
{"smiles": "COc1c(Nc2cc(Nc3ccc(N4CCOCC4)cn3)nc3[nH]n(C)c(=O)c23)cccc1-c1ncn(C)n1", "note": "[Compound I-20, 4-((2-methoxy-3-(1-methyl-1H-1,2,4-triazol-3-yl)phenyl)amino)-2-methyl-6-((5-morpholinopyridin-2-yl)amino)-1,2-dihydro-3H-pyrazolo[3,4-b]pyridin-3-one]", "values": [{"measurement": "Kd", "setting": "[1]", "result": "0.1 to 0.5", "unit": "nM"}]}
{"smiles": "CN(c1cc(N2CCC2)ccc1Nc1cc(NC(=O)C2CC2)nc2[nH]n(C)c(=O)c12)S(C)(=O)=O", "note": "[Compound I-219, N-(4-((4-(azetidin-1-yl)-2-(N-methylmethylsulfonamido)phenyl)amino)-2-methyl-3-oxo-2,3-dihydro-1H-pyrazolo[3,4-b]pyridin-6-yl)cyclopropanecarboxamide]", "values": [{"measurement": "Kd", "setting": "[1]", "result": "0.1 to 0.5", "unit": "nM"}]}
{"smiles": "COc1c(Nc2cc(Nc3ccc(C)cn3)nc3[nH]n(C)c(=O)c23)cccc1-c1ncn(C)n1", "note": "[Compound I-16, 4-((2-methoxy-3-(1-methyl-1H-1,2,4-triazol-3-yl)phenyl)amino)-2-methyl-6-((5-methylpyridin-2-yl)amino)-1H-pyrazolo[3,4-b]pyridin-3(2H)-one]", "values": [{"measurement": "Kd", "setting": "[1]", "result": "0.1 to 0.5", "unit": "nM"}]}
{"smiles": "COc1c(Cl)cccc1Nc1cc(Nc2ccn(C)n2)nc2[nH]n(C)c(=O)c12", "note": "[Compound I-136, 4-((3-chloro-2-methoxyphenyl)amino)-2-methyl-6-((1-methyl-1H-pyrazol 3-yl)amino)-1,2-dihydro-3H-pyrazolo[3,4-b]pyridin-3-one]", "values": [{"measurement": "Kd", "setting": "[1]", "result": "1 to 10", "unit": "nM"}]}
{"smiles": "Cc1ccc(Nc2cc(Nc3ccc(Cl)cc3S(C)(=O)=O)c3c(=O)n(C)[nH]c3n2)nn1", "note": "[Compound I-157, 4-((4-chloro-2-(methylsulfonyl)phenyl)amino)-2-methyl-6-((6-methylpyridazin-3-yl)amino)-1,2-dihydro-3H-pyrazolo[3,4-b]pyridin-3-one]", "values": [{"measurement": "Kd", "setting": "[1]", "result": "0.5 to 1", "unit": "nM"}]}
{"smiles": "Cn1[nH]c2nc(Nc3cccc(C(F)(F)F)n3)cc(Nc3ccc(Cl)cc3S(C)(=O)=O)c2c1=O", "note": "[Compound I-209, 4-((4-chloro-2-(methylsulfonyl)phenyl)amino)-2-methyl-6-((6-(trifluoromethyl)-pyridin-2-yl)amino)-1,2-dihydro-3H-pyrazolo[3,4-b]pyridin-3-one]", "values": [{"measurement": "Kd", "setting": "[1]", "result": "0.5 to 1", "unit": "nM"}]}
{"smiles": "Cn1[nH]c2nc(NC(=O)C3CC3)cc(Nc3ccccc3P(C)(C)=O)c2c1=O", "note": "[Compound I-125, N-(4-((2-(dimethylphosphoryl)phenyl)amino)-2-methyl-3-oxo-2,3-dihydro-1H-pyrazolo[3,4-b]pyridin-6-yl)cyclopropanecarboxamide]", "values": [{"measurement": "Kd", "setting": "[1]", "result": "> 10", "unit": "nM"}]}
{"smiles": "Cc1ccc(Nc2cc(Nc3ccc(Cl)cc3S(C)(=O)=O)c3c(=O)n(C)[nH]c3n2)nc1C(F)(F)F", "note": "[Compound I-208, 4-((4-chloro-2-(methylsulfonyl)phenyl)amino)-2-methyl-6-((5-methyl-6-(trifluoromethyl)pyridin-2-yl)amino)-1,2-dihydro-3H-pyrazolo[3,4-b]pyridin-3-one]", "values": [{"measurement": "Kd", "setting": "[1]", "result": "0.5 to 1", "unit": "nM"}]}
{"smiles": "COc1cccnc1Nc1cc(NC(=O)C2CC2)nc2[nH]n(C)c(=O)c12", "note": "[Compound I-223, N-(4-((3-methoxypyridin-2-yl)amino)-2-methyl-3-oxo-2,3-dihydro-1H-pyrazolo[3,4-b]pyridin-6-yl)cyclopropanecarboxamide]", "values": [{"measurement": "Kd", "setting": "[1]", "result": "1 to 10", "unit": "nM"}]}
{"smiles": "COc1c(Nc2cc(NC(=O)C3CC3)nc3[nH]n(C)c(=O)c23)cccc1-c1cnn(C)c1", "note": "[Compound I-55, N-(4-((2-methoxy-3-(1-methyl-1H-pyrazol-4-yl)phenyl)amino)-2-methyl-3-oxo-2,3-dihydro-1H-pyrazolo[3,4-b]pyridin-6-yl)cyclopropanecarboxamide]", "values": [{"measurement": "Kd", "setting": "[1]", "result": "0.5 to 1", "unit": "nM"}]}
{"smiles": "Cn1[nH]c2nc(NC(=O)C3CC3(F)F)cc(Nc3ccc(C4CC4)cc3S(C)(=O)=O)c2c1=O", "note": "(centres unmarked) [Compound I-239, N-(4-((4-cyclopropyl-2-(methylsulfonyl)phenyl)amino)-2-methyl-3-oxo-2,3-dihydro-1H-pyrazolo[3,4-b]pyridin-6-yl)-2,2-difluorocyclopropane-1-carboxamide]", "values": [{"measurement": "Kd", "setting": "[1]", "result": "0.1 to 0.5", "unit": "nM"}]}
{"smiles": "COc1c(Nc2cc(NC(=O)C3CC3)ncc2-c2cccnn2)cccc1-c1ncn(C)n1", "note": "[VIII-11, N-(4-((2-methoxy-3-(1-methyl-1H-1,2,4-triazol-3-yl)phenyl)amino)-5-(pyridazin-3-yl)pyridin-2-yl)cyclopropanecarboxamide]", "values": [{"measurement": "Kd", "setting": "[2]", "result": "10 to 100", "unit": "nM"}]}
{"smiles": "COc1c(Nc2cc(Nc3cc(C)nc(C)n3)ncc2-c2nnc(CO)o2)cccc1-c1ncn(C)n1", "note": "[VIII-14, (5-(6-((2,6-dimethylpyrimidin-4-yl)amino)-4-((2-methoxy-3-(1-methyl-1H-1,2,4-triazol-3-yl)phenyl)amino)pyridin-3-yl)-1,3,4-oxadiazol-2-yl)methanol]", "values": [{"measurement": "Kd", "setting": "[2]", "result": "0.1 to 1", "unit": "nM"}]}
{"smiles": "COc1c(Cl)cccc1Nc1cc(Nc2cnc(C(C)(C)OC)c(C#N)n2)nc2[nH]n(C)c(=O)c12", "note": "[Compound I-155, 6-((4-((3-chloro-2-methoxyphenyl)amino)-2-methyl-3-oxo-2,3-dihydro-1H-pyrazolo[3,4-b]pyridin-6-yl)amino)-3-(2-methoxypropan-2-yl)pyrazine-2-carbonitrile]", "values": [{"measurement": "Kd", "setting": "[1]", "result": "0.5 to 1", "unit": "nM"}]}
{"smiles": "COCc1ccnc(Nc2cc(Nc3ccc(C4CC4)cc3S(C)(=O)=O)c3c(=O)n(C)[nH]c3n2)c1", "note": "[Compound I-214, 4-((4-cyclopropyl-2-(methylsulfonyl)phenyl)amino)-6-((4-(methoxymethyl)pyridin-2-yl)amino)-2-methyl-1,2-dihydro-3H-pyrazolo[3,4-b]pyridin-3-one]", "values": [{"measurement": "Kd", "setting": "[1]", "result": "0.1 to 0.5", "unit": "nM"}]}
{"smiles": "COc1c(F)cccc1Nc1cc(Nc2cncc(C#N)n2)nc2[nH]n(C)c(=O)c12", "note": "[Compound I-85, 6-((4-((3-fluoro-2-methoxyphenyl)amino)-2-methyl-3-oxo-2,3-dihydro-1H-pyrazolo[3,4-b]pyridin-6-yl)amino)pyrazine-2-carbonitrile]", "values": [{"measurement": "Kd", "setting": "[1]", "result": "0.5 to 1", "unit": "nM"}]}
{"smiles": "COc1ccccc1Nc1cc(NC(=O)C2CC2)nc2[nH]n(C)c(=O)c12", "note": "[Compound I-61, N-(4-((2-methoxyphenyl)amino)-2-methyl-3-oxo-2,3-dihydro-1H-pyrazolo[3,4-b]pyridin-6-yl)cyclopropanecarboxamide]", "values": [{"measurement": "Kd", "setting": "[1]", "result": "1 to 10", "unit": "nM"}]}
{"smiles": "COc1c(F)cccc1Nc1cc(Nc2cnc(C(C)(C)OC)c(C#N)n2)nc2[nH]n(C)c(=O)c12", "note": "[Compound I-190, 6-((4-((3-fluoro-2-methoxyphenyl)amino)-2-methyl-3-oxo-2,3-dihydro-1H-pyrazolo[3,4-b]pyridin-6-yl)amino)-3-(2-methoxypropan-2-yl)pyrazine-2-carbonitrile]", "values": [{"measurement": "Kd", "setting": "[1]", "result": "0.5 to 1", "unit": "nM"}]}
{"smiles": "COC1CN(c2cccc(Nc3cc(Nc4ccccc4S(C)(=O)=O)c4c(=O)n(C)[nH]c4n3)n2)C1", "note": "[Compound I-140, 6-((6-(3-methoxyazetidin-1-yl)pyridin-2-yl)amino)-2-methyl-4-((2-(methylsulfonyl)phenyl)amino)-1,2-dihydro-3H-pyrazolo[3,4-b]pyridin-3-one]", "values": [{"measurement": "Kd", "setting": "[1]", "result": "1 to 10", "unit": "nM"}]}
{"smiles": "COc1cc(CO)ccc1Nc1cc(Nc2cccc(C(F)(F)F)n2)nc2[nH]n(C)c(=O)c12", "note": "[Compound I-72, 4-((4-(hydroxymethyl)-2-methoxyphenyl)amino)-2-methyl-6-((6-(trifluoromethyl)pyridin-2-yl)amino)-1,2-dihydro-3H-pyrazolo[3,4-b]pyridin-3-one]", "values": [{"measurement": "Kd", "setting": "[1]", "result": "1 to 10", "unit": "nM"}]}
{"smiles": "COc1c(Nc2cc(Cl)nc3[nH]n(C)c(=O)c23)cccc1-c1nnn(C)n1", "note": "[Compound I-27]", "values": [{"measurement": "Kd", "setting": "[1]", "result": "> 10", "unit": "nM"}]}
{"smiles": "COc1c(Nc2cc(Nc3cc(C)ccn3)nc3[nH]n(C)c(=O)c23)cccc1-c1nnn(C)n1", "note": "[Compound I-5, 4-((2-methoxy-3-(2-methyl-2H-tetrazol-5-yl)phenyl)amino)-2-methyl-6-((4-methylpyridin-2-yl)amino)-1,2-dihydro-3H-pyrazolo[3,4-b]pyridin-3-one]", "values": [{"measurement": "Kd", "setting": "[1]", "result": "> 10", "unit": "nM"}]}
{"smiles": "COc1c(Nc2cc(Nc3cc(CO)ccn3)nc3[nH]n(C)c(=O)c23)cccc1-c1nnn(C)n1", "note": "[Compound I-6, 6-((4-(hydroxymethyl)pyridin-2-yl)amino)-4-((2-methoxy-3-(2-methyl-2H-tetrazol-5-yl)phenyl)amino)-2-methyl-1,2-dihydro-3H-pyrazolo[3,4-b]pyridin-3-one]", "values": [{"measurement": "Kd", "setting": "[1]", "result": "> 10", "unit": "nM"}]}
{"smiles": "CNc1nn(-c2cccc(-c3ncn(C)n3)c2OC)c2cc(NC(=O)C3CC3)ncc12", "note": "[XVI-1, N-(1-(2-methoxy-3-(1-methyl-1H-1,2,4-triazol-3-yl)phenyl)-3-(methylamino)-1H-pyrazolo[4,3-c]pyridin-6-yl)cyclopropanecarboxamide]", "values": [{"measurement": "Kd", "setting": "[2]", "result": "10 to 100", "unit": "nM"}, {"measurement": "Kd", "setting": "Tyk2 JH2 Domain Binding Assay, read-out: Kd", "result": "7000 to 10000", "unit": "nM"}]}
{"smiles": "COc1c(Nc2cc(Nc3ccc(C4CC4)cn3)nc3[nH]n(C)c(=O)c23)cccc1-c1nnn(C)n1", "note": "[Compound I-59, 6-((5-cyclopropylpyridin-2-yl)amino)-4-((2-methoxy-3-(2-methyl-2H-tetrazol-5-yl)phenyl)amino)-2-methyl-1,2-dihydro-3H-pyrazolo[3,4-b]pyridin-3-one]", "values": [{"measurement": "Kd", "setting": "[1]", "result": "0.1 to 0.5", "unit": "nM"}]}
